Results on 5 molecules are retold here after PMC3409094 (Journal of medicinal chemistry, 2012).

Assay [1] addresses three MDR protease variants (M1-M3). The experiment in a line: HIV-1 protease inhibition assay. It is filed as biochemical. The note with it: against all three MDR protease variants (M1-M3).
The subject of assay [2] is wild-type and drug-resistant HIV-1 strains. As to the kind of experiment: Antiviral assays, all viruses tested summarised. It is filed as cell-based.
Where [3] appears, read: against all the viruses tested (wild-type and MDR HIV-1).

SMILES strings stand for the structures.

Take `CC[C@H](C)CN(C[C@@H](O)[C@H](Cc1ccccc1)NC(=O)OCCNC(=O)C(Cl)Cl)S(=O)(=O)c1ccc(OC)cc1` [13c, 2-(2,2-dichloroacetamido)ethyl (2S,3R)-3-hydroxy-4-(4-methoxy-N-((S)-2-methylbutyl)phenylsulfonamido)-1-phenylbutan-2-ylcarbamate]: the “MDR Ki” value in assay [1] is recorded as “excellent potencies in the low nM ranges”.
`CC[C@H](C)CN(C[C@@H](O)[C@H](Cc1ccccc1)NC(=O)OC[C@@H](C)C(=O)OC)S(=O)(=O)c1ccc(OC)cc1` [13f, (R)-methyl 3-((((2S,3R)-3-hydroxy-4-(4-methoxy-N-((S)-2-methylbutyl)phenylsulfonamido)-1-phenylbutan-2-yl)carbamoyl)oxy)-2-methylpropanoate]: in assay [1], the “MDR Ki” value is “excellent potencies in the low nM ranges”. In assay [2] (setting [3]), the EC50 (in general, the concentration that produces a half-maximal response) is on record as “modest antiviral potency”.
In the same order, the values of `CC[C@H](C)CN(C[C@@H](O)[C@H](Cc1ccccc1)NC(=O)OC[C@@H]1CCC(=O)N1)S(=O)(=O)c1ccc(OC)cc1` [13j, ((S)-5-oxopyrrolidin-2-yl)methyl ((2S,3R)-3-hydroxy-4-(4-methoxy-N-((S)-2-methylbutyl)phenylsulfonamido)-1-phenylbutan-2-yl)carbamate] are “excellent potencies in the low nM ranges” and “modest antiviral potency”.
Regarding `CC[C@H](C)CN(C[C@@H](O)[C@H](Cc1ccccc1)NC(=O)OCCN1CCNC1=O)S(=O)(=O)c1ccc2ncsc2c1` [14g, 2-(2-oxoimidazolidin-1-yl)ethyl ((2S,3R)-3-hydroxy-4-(N-((S)-2-methylbutyl)benzo[d]thiazole-6-sulfonamido)-1-phenylbutan-2-yl)carbamate], the EC50 result in assay [2] (setting [3]) is “modest antiviral potency”.
`CC[C@H](C)CN(C[C@@H](O)[C@H](Cc1ccccc1)NC(=O)OC[C@@H]1CCC(=O)N1)S(=O)(=O)c1ccc2ncsc2c1` [14j, ((S)-5-oxopyrrolidin-2-yl)methyl ((2S,3R)-3-hydroxy-4-(N-((S)-2-methylbutyl)benzo[d]thiazole-6-sulfonamido)-1-phenylbutan-2-yl)carbamate]: the “MDR Ki” value in assay [1] is reported as “excellent potencies in the low nM ranges”. The molecule further registered an EC50 in assay [2] (Human immunodeficiency virus 1) of 15.5 to 35.6 nM.
